Where “and” joins values, the source holds several entries; their conditions need not be identical. Equal entries are not always repeated.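 In this assay, cells in 96-well plates receive the compound at five concentrations for 48 hours. Endpoints are linearly interpolated between the surrounding concentrations. The concentration for 50% growth inhibition is given as GI50. TGI denotes the concentration required for complete inhibition of growth.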
Tests used:
Test in all cases: NCI-60 cell line screen, 48 h
SK-MEL-5 melanoma = test system: SK-MEL-5 melanoma
UACC-62 melanoma = test system: UACC-62 melanoma
A549 NSCLC = test system: A549 NSCLC
NCI-H226 lung = test system: NCI-H226 lung
U251 CNS = test system: U251 CNS
SK-MEL-2 melanoma = test system: SK-MEL-2 melanoma
SNB-78 CNS = test system: SNB-78 CNS
EKVX NSCLC = test system: EKVX NSCLC
SF-268 CNS = test system: SF-268 CNS
TK-10 renal = test system: TK-10 renal
COLO 205 colon = test system: COLO 205 colon
XF 498 CNS = test system: XF 498 CNS
HCC-2998 colon = test system: HCC-2998 colon
SR leukemia = test system: SR leukemia
DLD-1 colon = test system: DLD-1 colon
RXF 393 renal = test system: RXF 393 renal
HCT-116 colon = test system: HCT-116 colon
SF-539 CNS = test system: SF-539 CNS
786-0 renal = test system: 786-0 renal
ACHN renal = test system: ACHN renal
M14 melanoma = test system: M14 melanoma
HOP-62 NSCLC = test system: HOP-62 NSCLC
OVCAR-8 ovarian = test system: OVCAR-8 ovarian
HL-60(TB) leukemia = test system: HL-60(TB) leukemia
LOX IMVI melanoma = test system: LOX IMVI melanoma
LXFL 529 NSCLC = test system: LXFL 529 NSCLC
NCI-H522 lung = test system: NCI-H522 lung
OVCAR-4 ovarian = test system: OVCAR-4 ovarian
SK-MEL-28 melanoma = test system: SK-MEL-28 melanoma
SF-295 CNS = test system: SF-295 CNS
HCT-15 colon = test system: HCT-15 colon
M19-MEL melanoma = test system: M19-MEL melanoma
NCI-H460 lung = test system: NCI-H460 lung
DMS 114 small cell lung = test system: DMS 114 small cell lung
HT29 colon = test system: HT29 colon
MOLT-4 leukemia = test system: MOLT-4 leukemia
KM20L2 colon = test system: KM20L2 colon
KM12 colon = test system: KM12 colon
UO-31 renal = test system: UO-31 renal
IGROV1 ovarian = test system: IGROV1 ovarian
DMS 273 small cell lung = test system: DMS 273 small cell lung
SNB-19 CNS = test system: SNB-19 CNS
SW-620 colon = test system: SW-620 colon
K-562 leukemia = test system: K-562 leukemia
OVCAR-3 ovarian = test system: OVCAR-3 ovarian
CCRF-CEM leukemia = test system: CCRF-CEM leukemia
SN12C renal = test system: SN12C renal
NCI/ADR-RES ovarian = test system: NCI/ADR-RES ovarian
NCI-H23 lung = test system: NCI-H23 lung
SNB-75 CNS = test system: SNB-75 CNS
UACC-257 melanoma = test system: UACC-257 melanoma
MDA-MB-231 breast = test system: MDA-MB-231 breast
MCF7 breast = test system: MCF7 breast
CAKI-1 renal = test system: CAKI-1 renal
MDA-N = test system: MDA-N
SK-OV-3 ovarian = test system: SK-OV-3 ovarian
PC-3 prostate = test system: PC-3 prostate
HOP-92 NSCLC = test system: HOP-92 NSCLC
T-47D breast = test system: T-47D breast
OVCAR-5 ovarian = test system: OVCAR-5 ovarian
A498 renal = test system: A498 renal
MDA-MB-435 = test system: MDA-MB-435
MALME-3M melanoma = test system: MALME-3M melanoma
DU-145 prostate = test system: DU-145 prostate
RPMI-8226 leukemia = test system: RPMI-8226 leukemia
HS 578T breast = test system: HS 578T breast
BT-549 breast = test system: BT-549 breast

## CN(C)CCNC(=O)c1ccc(Cl)c2c(Nc3ccc(S(=O)(=O)N=C(N)N)cc3)c3ccccc3nc12
SK-MEL-5 melanoma
  TGI: 25.5 µM
UACC-62 melanoma
  TGI: 20.3 µM
A549 NSCLC
  TGI: 17.2 µM
NCI-H226 lung
  TGI: 6.67 µM
U251 CNS
  TGI: 16.4 µM
SK-MEL-2 melanoma
  TGI: 24.5 µM
SNB-78 CNS
  TGI: 48.1 µM
EKVX NSCLC
  TGI: 27.5 µM
SF-268 CNS
  TGI: 19.7 µM
TK-10 renal
  TGI: 38.7 µM
COLO 205 colon
  TGI: 17.9 µM
XF 498 CNS
  TGI: 27.1 µM
HCC-2998 colon
  TGI: 21.3 µM
SR leukemia
  TGI: 9.06 µM
DLD-1 colon
  TGI: 18.4 µM
RXF 393 renal
  TGI: 19.3 µM
HCT-116 colon
  TGI: 17.8 µM
SF-539 CNS
  TGI: 14.7 µM
786-0 renal
  TGI: 35 µM
ACHN renal
  TGI: 18 µM
M14 melanoma
  TGI: 53.6 µM
HOP-62 NSCLC
  TGI: 26.4 µM
OVCAR-8 ovarian
  TGI: 15.2 µM
HL-60(TB) leukemia
  TGI: 6.27 µM
LOX IMVI melanoma
  TGI: 5.5 µM
LXFL 529 NSCLC
  TGI: 18.4 µM
NCI-H522 lung
  TGI: 3.79 µM
OVCAR-4 ovarian
  TGI: 5.24 µM
SK-MEL-28 melanoma
  TGI: 26.6 µM
SF-295 CNS
  TGI: 15.2 µM
HCT-15 colon
  TGI: 18.6 µM
M19-MEL melanoma
  TGI: 17.3 µM
NCI-H460 lung
  TGI: 10.2 µM
DMS 114 small cell lung
  TGI: 7.98 µM
HT29 colon
  TGI: 10.3 µM
MOLT-4 leukemia
  TGI: 2.66 µM
KM20L2 colon
  TGI: 19.2 µM
KM12 colon
  TGI: 20.7 µM
UO-31 renal
  TGI: 3.23 µM
IGROV1 ovarian
  TGI: 18.5 µM
DMS 273 small cell lung
  TGI: 8.63 µM
SNB-19 CNS
  TGI: 6.6 µM
SW-620 colon
  TGI: 14.9 µM
K-562 leukemia
  TGI: 16.9 µM
OVCAR-3 ovarian
  TGI: 30.6 µM
CCRF-CEM leukemia
  TGI: 16.9 µM
SN12C renal
  TGI: 16.6 µM

## O=C1C=CC(=O)c2c1c1c(c3c2C2c4ccccc4C3c3ccccc32)C2c3ccccc3C1c1ccccc12
SK-MEL-5 melanoma
  GI50: 1.52 µM
  TGI: 3.11 µM and 6.21 µM
UACC-62 melanoma
  GI50: 1.74 µM
  TGI: 4.37 µM and 4.7 µM
A549 NSCLC
  GI50: 3.08 µM
  TGI: 21.9 µM
NCI-H226 lung
  GI50: 1.57 µM
  TGI: 3.02 µM and 11.1 µM
NCI/ADR-RES ovarian
  GI50: 2.64 µM
  TGI: 6.2 µM
U251 CNS
  GI50: 4.05 µM
  TGI: 20.5 µM
NCI-H23 lung
  GI50: 1.81 µM
  TGI: 4.36 µM and 6.61 µM
SK-MEL-2 melanoma
  TGI: 4.25 µM
SNB-78 CNS
  TGI: 3.57 µM
EKVX NSCLC
  GI50: 6.11 µM
  TGI: 8.53 µM
SF-268 CNS
  TGI: 16.5 µM
TK-10 renal
  TGI: 3.31 µM and 3.4 µM
SNB-75 CNS
  TGI: 24.4 µM
COLO 205 colon
  GI50: 1.67 µM
  TGI: 3.66 µM and 2.86 µM
XF 498 CNS
  TGI: 3.34 µM
HCC-2998 colon
  GI50: 4.91 µM
  TGI: 17.4 µM
SR leukemia
  GI50: 0.386 µM
  TGI: > 43.4 µM
UACC-257 melanoma
  TGI: 3.58 µM
MDA-MB-231 breast
  GI50: 2.02 µM
  TGI: 4.09 µM
DLD-1 colon
  TGI: 2.3 µM
RXF 393 renal
  GI50: 2.33 µM
  TGI: 3.86 µM and 3 µM
HCT-116 colon
  TGI: 2.85 µM and 2.91 µM
SF-539 CNS
  TGI: 11.5 µM
786-0 renal
  TGI: 2.99 µM and 2.88 µM
MCF7 breast
  GI50: 2.58 µM
  TGI: 3.29 µM and 7.55 µM
ACHN renal
  GI50: 1.96 µM
  TGI: 3.43 µM and 3.16 µM
M14 melanoma
  TGI: 3.29 µM and 3.12 µM
HOP-62 NSCLC
  GI50: 6.47 µM
  TGI: 35.1 µM
OVCAR-8 ovarian
  GI50: 2.78 µM
  TGI: 2.94 µM
HL-60(TB) leukemia
  GI50: 0.657 µM
  TGI: 4.1 µM and 4.85 µM
LOX IMVI melanoma
  TGI: 2.91 µM and 3.08 µM
LXFL 529 NSCLC
  TGI: 2.27 µM
NCI-H522 lung
  GI50: 0.254 µM
  TGI: 0.775 µM and 1.42 µM
OVCAR-4 ovarian
  TGI: 3.92 µM
SK-MEL-28 melanoma
  TGI: 2.83 µM
SF-295 CNS
  GI50: 3.21 µM
  TGI: 30.4 µM
CAKI-1 renal
  GI50: 1.5 µM
  TGI: 2.83 µM and 3.25 µM
HCT-15 colon
  GI50: 1.22 µM
  TGI: 2.77 µM and 2.95 µM
M19-MEL melanoma
  TGI: 3.6 µM
MDA-N
  TGI: 2.91 µM and 3.01 µM
NCI-H460 lung
  GI50: 3.85 µM
  TGI: 26.8 µM
SK-OV-3 ovarian
  TGI: 28.6 µM
PC-3 prostate
  GI50: 9.64 µM
  TGI: 3.37 µM and 21.6 µM
DMS 114 small cell lung
  TGI: 4.41 µM
HT29 colon
  GI50: 1.64 µM
  TGI: 4.19 µM and 4.29 µM
MOLT-4 leukemia
  GI50: 0.393 µM
  TGI: > 54.5 µM
KM20L2 colon
  TGI: 15.2 µM
HOP-92 NSCLC
  GI50: 1.65 µM
  TGI: 3.08 µM and 2.47 µM
T-47D breast
  GI50: 2 µM
  TGI: 3.25 µM and 3.49 µM
OVCAR-5 ovarian
  TGI: 16.3 µM
KM12 colon
  GI50: 2.49 µM
  TGI: 25.5 µM
UO-31 renal
  GI50: 1.62 µM
  TGI: 3.09 µM and 4.32 µM
A498 renal
  TGI: 11.1 µM
IGROV1 ovarian
  GI50: 2.08 µM
  TGI: 4.58 µM and 14.7 µM
MDA-MB-435
  TGI: 3.34 µM and 3.35 µM
DMS 273 small cell lung
  TGI: 4.08 µM
SNB-19 CNS
  GI50: 3.62 µM
  TGI: 34.4 µM
SW-620 colon
  GI50: 0.588 µM
  TGI: 4.82 µM and 2.16 µM
K-562 leukemia
  GI50: 0.552 µM
  TGI: 3.94 µM and 10.7 µM
OVCAR-3 ovarian
  TGI: 3.3 µM
MALME-3M melanoma
  TGI: 3.07 µM and 3.05 µM
DU-145 prostate
  TGI: 28.4 µM
CCRF-CEM leukemia
  GI50: 0.451 µM
  TGI: 2.93 µM
RPMI-8226 leukemia
  GI50: 0.479 µM
  TGI: > 22.1 µM
SN12C renal
  GI50: 1.43 µM
  TGI: 3 µM and 7.45 µM
HS 578T breast
  GI50: 2.38 µM
  TGI: 6.24 µM
BT-549 breast
  TGI: 13.7 µM

Reference: PubChem BioAssay (NCI)
